What follows are compounds tested against T1, F508del (Homo sapiens, UniProt P13569, DEL508-508) (assay: Protocol 1: membrane potential optical assay (FLIPR III, voltage sensing dye), identification of potentiator compounds). Conditions: Table 3, compounds of Table 1.
T1 construct: expressed in transfected cells
Assay type: cell-based
Procedure, shortened: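 Mouse NIH 3T3 fibroblasts stably expressing F508del, temperature-corrected at 27 °C for 24 h, pretreated with compound, then loaded with voltage-sensing redistribution dye. Forskolin was added in a single step with a chloride gradient (chloride-free gluconate bath; Bath Solution #1 HEPES pH 7.4). Membrane-potential fluorescence read on FLIPR III.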

T1 sequence (P13569 with tags, fused parts or gaps DEL508-508): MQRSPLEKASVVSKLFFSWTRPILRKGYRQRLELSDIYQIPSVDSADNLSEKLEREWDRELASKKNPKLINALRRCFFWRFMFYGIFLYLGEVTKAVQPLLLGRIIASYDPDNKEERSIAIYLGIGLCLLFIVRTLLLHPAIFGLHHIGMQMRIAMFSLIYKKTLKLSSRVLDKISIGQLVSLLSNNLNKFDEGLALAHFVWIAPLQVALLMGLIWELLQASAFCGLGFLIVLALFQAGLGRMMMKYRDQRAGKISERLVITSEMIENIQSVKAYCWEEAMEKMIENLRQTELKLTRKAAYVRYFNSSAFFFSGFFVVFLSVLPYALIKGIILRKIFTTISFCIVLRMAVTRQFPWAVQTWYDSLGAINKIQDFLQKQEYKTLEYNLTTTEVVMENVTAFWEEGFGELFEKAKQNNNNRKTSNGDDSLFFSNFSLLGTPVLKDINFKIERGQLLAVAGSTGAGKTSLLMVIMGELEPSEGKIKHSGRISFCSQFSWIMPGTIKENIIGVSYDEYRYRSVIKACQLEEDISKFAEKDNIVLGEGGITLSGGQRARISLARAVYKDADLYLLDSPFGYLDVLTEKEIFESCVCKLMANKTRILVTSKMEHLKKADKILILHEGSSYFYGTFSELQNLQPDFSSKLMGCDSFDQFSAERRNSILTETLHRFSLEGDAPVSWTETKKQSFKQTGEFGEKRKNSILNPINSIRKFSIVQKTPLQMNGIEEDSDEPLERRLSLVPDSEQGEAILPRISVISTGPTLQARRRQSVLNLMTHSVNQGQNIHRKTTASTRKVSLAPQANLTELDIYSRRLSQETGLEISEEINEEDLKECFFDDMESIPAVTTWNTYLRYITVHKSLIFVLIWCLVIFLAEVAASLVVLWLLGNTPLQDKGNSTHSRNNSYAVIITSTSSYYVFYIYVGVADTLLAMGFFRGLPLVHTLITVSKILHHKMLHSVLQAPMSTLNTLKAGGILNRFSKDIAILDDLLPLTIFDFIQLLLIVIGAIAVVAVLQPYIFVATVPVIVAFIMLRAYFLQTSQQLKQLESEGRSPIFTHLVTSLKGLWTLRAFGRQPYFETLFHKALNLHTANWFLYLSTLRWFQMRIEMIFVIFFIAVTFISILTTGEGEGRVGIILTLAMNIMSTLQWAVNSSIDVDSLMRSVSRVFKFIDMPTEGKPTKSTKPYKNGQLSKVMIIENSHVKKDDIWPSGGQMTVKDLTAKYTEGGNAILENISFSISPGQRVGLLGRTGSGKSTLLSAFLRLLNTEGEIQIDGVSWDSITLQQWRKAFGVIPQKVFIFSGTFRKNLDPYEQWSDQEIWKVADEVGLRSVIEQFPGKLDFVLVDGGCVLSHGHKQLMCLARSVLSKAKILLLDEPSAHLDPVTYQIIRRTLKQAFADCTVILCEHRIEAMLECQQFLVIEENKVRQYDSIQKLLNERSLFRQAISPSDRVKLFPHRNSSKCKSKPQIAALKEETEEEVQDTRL

| Structure (SMILES) | EC30 |
| --- | --- |
| CC1CN(c2ncccc2C(=O)NS(=O)(=O)c2cccc(NCCCN(C)c3ccccc3)n2)C(C)(C)C1 (stereo not shown) [Compound 1879, N—[[6-[3-(N-methylanilino)propylamino]-2-pyridyl]sulfonyl]-2-(2,2,4-trimethylpyrrolidin-1-yl)pyridine-3-carboxamide] | +++ (“+++” means <3 uM) |
| COc1c(C)cccc1-c1ccc(C(=O)NS(=O)(=O)c2ccc[nH]c2=O)c(N2C[C@@H](C)CC2(C)C)n1 [Compound 1880, 6-(2-methoxy-3-methyl-phenyl)-N-[(2-oxo-1H-pyridin-3-yl)sulfonyl]-2-[(4S)-2,2,4-trimethylpyrrolidin-1-yl]pyridine-3-carboxamide] | ++ (“++” means between 3 uM and 10 uM) |
| C/C=C/COc1cccc(S(=O)(=O)NC(=O)c2cccnc2N2CC(C)CC2(C)C)n1 (stereo not shown) [Compound 1881, N—[[6-[(E)-but-2-enoxy]-2-pyridyl]sulfonyl]-2-(2,2,4-trimethylpyrrolidin-1-yl)pyridine-3-carboxamide] | +++ (“+++” means <3 uM) |
| CC1CCC(Oc2cccc(S(=O)(=O)NC(=O)c3cccnc3N3CC(C)CC3(C)C)n2)C1 (stereo not shown) [Compound 1884, N—[[6-(3-methylcyclopentoxy)-2-pyridyl]sulfonyl]-2-(2,2,4-trimethylpyrrolidin-1-yl)pyridine-3-carboxamide] | +++ (“+++” means <3 uM) |
| CC(C)COc1cc(F)cc(-c2ccc(C(=O)NS(=O)(=O)c3cccc(O)c3)c(N3C[C@@H](C)CC3(C)C)n2)c1 [Compound 1885, 6-(3-fluoro-5-isobutoxy-phenyl)-N-(3-hydroxyphenyl)sulfonyl-2-[(4S)-2,2,4-trimethylpyrrolidin-1-yl]pyridine-3-carboxamide] | +++ (“+++” means <3 uM) |
| [2H]C([2H])([2H])C([2H])(COc1ccn(-c2ccc(C(=O)NS(=O)(=O)c3cccnc3N)c(N3C[C@@H](C)CC3(C)C)n2)n1)C([2H])([2H])[2H] [Compound 1887, N-[(2-amino-3-pyridyl)sulfonyl]-6-[3-[2,3,3,3-tetradeuterio-2-(trideuteriomethyl)propoxy]pyrazol-1-yl]-2-[(4S)-2,2,4-trimethylpyrrolidin-1-yl]pyridine-3-carboxamide] | +++ (“+++” means <3 uM) |
| Cc1cccc(C)c1Oc1nc(-c2cc(F)cc(OCC(C)(C)O)c2)ccc1C(=O)NS(=O)(=O)c1cccc(N)n1 [Compound 1890, N-[(6-amino-2-pyridyl)sulfonyl]-2-(2,6-dimethylphenoxy)-6-[3-fluoro-5-(2-hydroxy-2-methyl-propoxy)phenyl]pyridine-3-carboxamide] | ++ (“++” means between 3 uM and 10 uM) |
| CO[C@@H]1CCN(S(=O)(=O)NC(=O)c2ccc(-c3cc(F)cc(OCC(C)C)c3)nc2N2C[C@@H](C)CC2(C)C)C1 [Compound 1893, 6-(3-fluoro-5-isobutoxy-phenyl)-N-[(3R)-3-methoxypyrrolidin-1-yl]sulfonyl-2-[(4S)-2,2,4-trimethylpyrrolidin-1-yl]pyridine-3-carboxamide] | +++ (“+++” means <3 uM) |
| CC(C)COc1cnn(-c2ccc(C(=O)NS(=O)(=O)c3cccnc3N)c(N3C[C@@H](C)CC3(C)C)n2)c1 [Compound 1895, N-[(2-amino-3-pyridyl)sulfonyl]-6-(4-isobutoxypyrazol-1-yl)-2-[(4S)-2,2,4-trimethylpyrrolidin-1-yl]pyridine-3-carboxamide] | +++ (“+++” means <3 uM) |
| CC(C)COc1ccn(-c2ccc(C(=O)NS(=O)(=O)c3ccc[nH]c3=O)c(N3C[C@@H](C)CC3(C)C)n2)n1 [Compound 1896, 6-(3-isobutoxypyrazol-1-yl)-N-[(2-oxo-1H-pyridin-3-yl)sulfonyl]-2-[(4S)-2,2,4-trimethylpyrrolidin-1-yl]pyridine-3-carboxamide] | +++ (“+++” means <3 uM) |
| CC(C)Oc1ccccc1-c1ccc(C(=O)NS(=O)(=O)N2CC[C@H](N)C2)c(N2C[C@@H](C)CC2(C)C)n1 [Compound 1897, N-[(3S)-3-aminopyrrolidin-1-yl]sulfonyl-6-(2-isopropoxyphenyl)-2-[(4S)-2,2,4-trimethylpyrrolidin-1-yl]pyridine-3-carboxamide] | +++ (“+++” means <3 uM) |
| Cc1ccccc1Nc1cccc(S(=O)(=O)NC(=O)c2cccnc2N2CC(C)CC2(C)C)n1 (stereo not shown) [Compound 1898, N—[[6-(2-methylanilino)-2-pyridyl]sulfonyl]-2-(2,2,4-trimethylpyrrolidin-1-yl)pyridine-3-carboxamide] | ++ (“++” means between 3 uM and 10 uM) |
| C[C@@H]1CN(c2nc(-c3ccc(C(F)(F)F)cc3)ccc2C(=O)NS(=O)(=O)N2CC[C@H](N)C2)C(C)(C)C1 [Compound 1900, N-[(3S)-3-aminopyrrolidin-1-yl]sulfonyl-6-[4-(trifluoromethyl)phenyl]-2-[(4S)-2,2,4-trimethylpyrrolidin-1-yl]pyridine-3-carboxamide] | ++ (“++” means between 3 uM and 10 uM) |
| CC(C)COc1cc(F)cc(-c2ccc(C(=O)NS(=O)(=O)c3cccc(N)n3)c(N3CCCCC(C)(C)C3)n2)c1 [Compound 1901, N-[(6-amino-2-pyridyl)sulfonyl]-2-(3,3-dimethylazepan-1-yl)-6-(3-fluoro-5-isobutoxy-phenyl)pyridine-3-carboxamide] | +++ (“+++” means <3 uM) |
| COc1cc(F)c(F)cc1-c1ccc(C(=O)NS(=O)(=O)c2ccc[nH]c2=O)c(N2C[C@@H](C)CC2(C)C)n1 [Compound 1904, 6-(4,5-difluoro-2-methoxy-phenyl)-N-[(2-oxo-1H-pyridin-3-yl)sulfonyl]-2-[(4S)-2,2,4-trimethylpyrrolidin-1-yl]pyridine-3-carboxamide] | +++ (“+++” means <3 uM) |
| CC1CN(c2ncccc2C(=O)NS(=O)(=O)c2cccc(NC(C)c3ccccc3)n2)C(C)(C)C1 (stereo not shown) [Compound 1905, N—[[6-(1-phenylethylamino)-2-pyridyl]sulfonyl]-2-(2,2,4-trimethylpyrrolidin-1-yl)pyridine-3-carboxamide] | +++ (“+++” means <3 uM) |

Now from value to compound:

| EC30 | Structure (SMILES) |
| --- | --- |
| ++ (“++” means between 3 uM and 10 uM) | COc1cc(OC)cc(-c2ccc(C(=O)NS(=O)(=O)c3ccc[nH]c3=O)c(N3C[C@@H](C)CC3(C)C)n2)c1 [Compound 1878, 6-(3,5-dimethoxyphenyl)-N-[(2-oxo-1H-pyridin-3-yl)sulfonyl]-2-[(4S)-2,2,4-trimethylpyrrolidin-1-yl]pyridine-3-carboxamide] |
| + (“+” means greater than 10 uM) | CC(C)CS(=O)(=O)N1CCC=C(c2ccc(C(=O)NS(=O)(=O)c3cccc(N)n3)c(N3C[C@@H](C)CC3(C)C)n2)C1 [Compound 1882, N-[(6-amino-2-pyridyl)sulfonyl]-6-(1-isobutylsulfonyl-3,6-dihydro-2H-pyridin-5-yl)-2-[(4S)-2,2,4-trimethylpyrrolidin-1-yl]pyridine-3-carboxamide] |
| +++ (“+++” means <3 uM) | C[C@@H]1CN(c2nc(C(C)(C)C)c(C(O)C(O)C(C)(C)C)cc2C(=O)NS(=O)(=O)c2cccc(N)n2)C(C)(C)C1 (stereo partly shown) [Compound 1883] |
| ++ (“++” means between 3 uM and 10 uM) | COc1ccc(-c2cnc(N3CC(C)CC3(C)C)c(C(=O)NS(=O)(=O)c3cccc(N)n3)c2)cn1 (stereo not shown) [Compound 1886, N-[(6-amino-2-pyridyl)sulfonyl]-5-(6-methoxy-3-pyridyl)-2-(2,2,4-trimethylpyrrolidin-1-yl)pyridine-3-carboxamide] |
| ++ (“++” means between 3 uM and 10 uM) | CC1CN(c2ncc(C3=CC4CCC3C4)cc2C(=O)NS(=O)(=O)c2cccc(N)n2)C(C)(C)C1 (stereo not shown) [Compound 1888, N-[(6-amino-2-pyridyl)sulfonyl]-5-(3-bicyclo[2.2.1]hept-2-enyl)-2-(2,2,4-trimethylpyrrolidin-1-yl)pyridine-3-carboxamide] |
| +++ (“+++” means <3 uM) | Cc1cc(OC(C)C)cc(-c2cnc(N3CC(C)CC3(C)C)c(C(=O)NS(=O)(=O)c3cccc(N)n3)c2)c1 (stereo not shown) [Compound 1889, N-[(6-amino-2-pyridyl)sulfonyl]-5-(3-isopropoxy-5-methyl-phenyl)-2-(2,2,4-trimethylpyrrolidin-1-yl)pyridine-3-carboxamide] |
| +++ (“+++” means <3 uM) | CC(Oc1nc(N2C[C@@H](C)CC2(C)C)c(C(=O)NS(=O)(=O)c2cccc(N)n2)cc1F)C1CCOCC1 (stereo partly drawn) [Compound 1891, N-[(6-amino-2-pyridyl)sulfonyl]-5-fluoro-6-(1-tetrahydropyran-4-ylethoxy)-2-[(4S)-2,2,4-trimethylpyrrolidin-1-yl]pyridine-3-carboxamide] |
| +++ (“+++” means <3 uM) | Cc1ccc(CNc2cccc(S(=O)(=O)NC(=O)c3cccnc3N3CC(C)CC3(C)C)n2)cc1 (stereo not shown) [Compound 1892, N—[[6-(p-tolylmethylamino)-2-pyridyl]sulfonyl]-2-(2,2,4-trimethylpyrrolidin-1-yl)pyridine-3-carboxamide] |
| +++ (“+++” means <3 uM) | CC(C)CCOc1cccc(-c2cnc(N3CC(C)CC3(C)C)c(C(=O)NS(=O)(=O)c3cccc(N)n3)c2)c1 (stereo not shown) [Compound 1894, N-[(6-amino-2-pyridyl)sulfonyl]-5-(3-isopentyloxyphenyl)-2-(2,2,4-trimethylpyrrolidin-1-yl)pyridine-3-carboxamide] |
| +++ (“+++” means <3 uM) | CC1CN(c2ncccc2C(=O)NS(=O)(=O)c2cccc(OCc3ccc(F)cc3Cl)n2)C(C)(C)C1 (stereo not shown) [Compound 1899, N—[[6-[(2-chloro-4-fluoro-phenyl)methoxy]-2-pyridyl]sulfonyl]-2-(2,2,4-trimethylpyrrolidin-1-yl)pyridine-3-carboxamide] |
| +++ (“+++” means <3 uM) | CC1CN(c2ncccc2C(=O)NS(=O)(=O)c2cccc(Oc3ccc(C(C)C)cc3)n2)C(C)(C)C1 (stereo not shown) [Compound 1902, N—[[6-(4-isopropylphenoxy)-2-pyridyl]sulfonyl]-2-(2,2,4-trimethylpyrrolidin-1-yl)pyridine-3-carboxamide] |
| +++ (“+++” means <3 uM) | CC(C)Oc1ccc(-c2ccc(C(=O)NS(=O)(=O)c3cccnc3N)c(N3C[C@@H](C)CC3(C)C)n2)cc1 [Compound 1903, N-[(2-amino-3-pyridyl)sulfonyl]-6-(4-isopropoxyphenyl)-2-[(4S)-2,2,4-trimethylpyrrolidin-1-yl]pyridine-3-carboxamide] |
